Experiments:
[1] = target: T1, recombinant H. influenzae IgA1P (variant A1) (Haemophilus influenzae, UniProt P44969); format: biochemical; conditions: up to 100 μM
[2] = target: T1, recombinant H. influenzae IgA1P (variant A1); experiment: biochemical

Row | Compound | Inhibition of recombinant H. influenzae IgA1P [1] | IC50 [2] [nM]
1 | NCCc1ccc(S(=O)(=O)F)cc1 [Pefablock] | did not inhibit | 
2 | O=S(=O)(F)Cc1ccccc1 [PMSF] | did not inhibit | 
3 | O=c1oc(Cl)c(Cl)c2ccccc12 [DCIC, 3,4-dichloroisocoumarin] |  | 6 ± 1
4 | Oc1nsnc1N1CCOCC1 [Compound 1a, 4-morpholin-4-yl-1,2,5-thiadiazol-3-ol] |  | > 100000
